Test results taken from US9212209B2, “Screening methods for spinal muscular atrophy” (Indiana University Research and Technology Corporation, priority 2012, dated 2015).
pEC50: −log10 of the molar value. In brackets after ≈: the same amount, converted by molar mass. Several values for one entry are separate records, joined by “and”; a condition that tells them apart may be missing. Equal values may be shown once. Read-outs that look alike come from different tables or passages of the source. Each block holds one molecule with its values, some of them ahead of it.

Key:
SMN2-luciferase reporter = SMN2-luciferase reporter assay (clonal HEK-293 SMN2-luc cells); type: cell-based, human; conditions: for Max. fold increase: cell-based reporter response to known SMN2 modulating compounds; for Emax: read-out: Max % Activity; for Active: reporter assay
Protocol: The reporter cell lines were plated at 50,000 cells per well in 96-well plates and incubated overnight. Compounds were added to each well and incubated at 37° C. overnight. The final DMSO concentration was 0.1%. Luciferase activity was assayed using either STEADYGLO (PROMEGA E2510) or DUALGLO (PROMEGA E2920) luciferase using the WALLAC ENVISION multilabel reader. For detailed assay conditions see Table 2A. All data points were transformed from CPS to percent increase over basal expression in the treated control wells (DMSO or H2O as appropriate).
Plates were sealed with porous paper tape and incubated for 24 hours. […] For comparison, data points were transformed from CPS to percent activation over basal expression in the DMSO treated control wells.
For comparison, all data points are expressed as percent increase over basal luciferase expression in the control cells.

[1] = system: SMN-luciferase transcripts; test: qRT-PCR of SMN-luciferase transcripts in SMN2-luc cells; type: cell-based, human; conditions: 24 hours, relative to DMSO, normalized to GAPDH, aclarubicin at 300 nM, words
Protocol: Compounds were tested at three concentrations that display maximal activity in the luciferase assay. Cells were treated as described above for the luciferase assay. Cells were harvested by trypsinization, neutralized with trypsin inhibitor, and washed. RNA was isolated from the cells using TRIZOL Reagent (Invitrogen 15596-026). cDNA was generated using the IMPROM-II Reverse Transcription System (Promega A3801).
The forward primer pair recognizes the exon 5-6 junction, which includes a restriction site that was engineered into the reporter and will exclude amplification of endogenous SMN mRNA. The reverse primers recognize either exon 7 or luciferase for detection of full-length or total SMN-luciferase transcripts respectively. For a reference control, cDNA from the housekeeping gene glyceraldehyde-3-phosphate dehydrogenase (GAPDH) was amplified. The primers used include SMN exon5-forward ([…]) (SEQ ID NO: 3), luciferase-reverse ([…]) (SEQ ID NO: 4), exon7-reverse ([…]) (SEQ ID NO: 5), GAPDH-reverse (G3A) ([…]) (SEQ ID NO: 6) and GAPDH-forward (G3S) ([…]) (SEQ ID NO: 7). qPCR was performed as described in the protocol for iQ SYBRGREEN SUPERMIX (Biorad 170-8882) using an EPPENDORF Mastercycler ep realplex^4 Thermo Cycler. Reactions were incubated for a 10 minute, 94° C. hot start followed by 45 cycles of the following: 94° C. for 45 second, 60° C. for 15 seconds, 72° C. for 45 seconds. Melting curves for each reaction were obtained. Each sample was assayed in triplicate and every plate contained a 5-point cDNA dilution course to calculate amplification efficiency for each primer pair. The Pfaffl method was used to determine the change in transcript levels relative to the DMSO and normalized to GAPDH (Pfaffl, M. W., “A new mathematical model for relative quantification in real-time RT-PCR,” Nucleic Acids Res 2001, 29(9), 3e45).
Based on the new reporter design, it was predicted that this screen could detect increased SMN-luciferase protein levels caused by compounds that stimulate SMN2 transcription, exon 7 inclusion, or by increasing the half-life of the SMN mRNA or protein. Quantitative reverse transcriptase PCR (qRT-PCR) was used to analyze SMN-luciferase mRNAs. All assays used RNA from control and compound-treated SMN2-luc cells and primers pairs were chosen to amplify only the SMN-luciferase derived transcripts (FIG. 4A). A pair of primers were used that specifically detects both full-length (exon 7 included) and Δ7 (exon 7 excluded) SMN-luciferase transcripts (primers 1 and 3). To measure changes in exon 7 splicing efficiency, a primer pair was used that detects only the full-length (exon 7 included) SMN-luciferase transcript (primers 1 and 2).
For each sample, the percent increase in the amount of total SMN-luciferase transcripts (gray bar) and exon 7 included full-length SMN-luciferase transcripts (white bar) was plotted (FIG. 4). Compounds that increase transcription should show increased total SMN-luciferase transcripts (gray bar) with a proportional increase for exon 7 included transcripts (white bar), assuming that proper splicing of exon 7 is not rate limiting. Compounds that stimulate exon 7 inclusion should increase the amount of exon 7 included full-length transcript (white bar) detected with little to no change in the expression of total SMN-luciferase transcripts (gray bar). In these experiments, cells were treated with compound, harvested, and each cell pellet was divided for isolation of RNA and to assay luciferase activity. Each qRT-PCR sample was normalized to the housekeeping gene glyceraldehyde-3-phosphate dehydrogenase (GAPDH). The Pfaffl method was used to calculate the change in the amount of total SMN mRNA and determine whether compound treatments increased SMN transcripts.

[2] = Solubility in PBS / aqueous solution; type: physicochemical
SMA mice = test: SMA mice, intraperitoneal dosing: lifespan, weight, time to right; type: in vivo, mouse; conditions: for lifespan / weight of the treated animals: words; for Time to right: individual pup, raw data
Protocol: The animal studies included new derivatives of LDN-76070 and LDN-75654. Mice were injected intraperitoneally once daily from post-natal day 1-10. […] Compounds LDN-212014, LDN-212016, LDN-212351, and LDN-212391 were injected into a cohort of animals (3-4 each). […] In the Kaplan-Meier curve that DMSO control decreased survival by 50%—the compounds were in […] (FIG. 26A).
LDN-212014 and LDN-76070 were further tested in A7 SMA model mice. Mice were dosed using compounds dissolved in 100% DMSO injected at 20 mg/kg with each dose administered once daily by intraperitoneal injection. As shown in the black curves in the Kaplan-Meier plot, control animals lived 4-5 days longer than the DMSO vehicle treated animals, indicating toxicity. […] In fact, the compounds display a statistically significant increase in survival compared with the untreated animals. These compounds extend the lifespan of SMA mice despite the DMSO toxicity.
In ‘time to right’ experiments, animals are placed on their backs and the duration for animals to right themselves is recorded. Animals that are unable to right in less than 30 seconds are scored as a failure. DMSO treated animals were unable to right themselves, while a small percentage of untreated animals display the ability to right themselves for up to postnatal day (PND) 11. A larger percentage of treated animals can right themselves past PND 17, and in the case of one animal as late as PND 21.

[3] = Liver microsome stability; conditions: for Stabilityin liver microsomes: Table 8; for Stability: Table 9
[4] = Homo sapiens, HEK293, cell-based reporter, known SMN2 modulating compounds, read-out: EC50
[5] = Homo sapiens, HEK293, reporter assay, Table 6, read-out: Ec50
[6] = Homo sapiens, HEK293, reporter assay, Table 6
[7] = IP once daily post-natal day 1-10, compounds in 20% DMSO, 3-4 animals each
[8] = IP once daily post-natal day 1-10, compounds in 20% DMSO
[9] = aqueous solution, Table 8, grades, read-out: Solubility in aqueous solution

Structure (SMILES): CC[C@@]1(O)C[C@H](O[C@H]2C[C@H](N(C)C)[C@H](O[C@H]3C[C@H](O)[C@H](O[C@H]4CCC(=O)[C@H](C)O4)[C@H](C)O3)[C@H](C)O2)c2c(cc3c(c2O)C(=O)c2c(O)cccc2C3=O)[C@H]1C(=O)OC [Aclarubicin, aclarubicin, reference compound]
- pEC50 (SMN2-luciferase reporter; Homo sapiens, HEK293): 6.53
- Max. fold increase (SMN2-luciferase reporter): 10 fold
- exon 7 included full-length SMN-luciferase transcripts [1]: lesser increase
- total SMN-luciferase transcripts [1]: potent increase

- pEC50 (SMN2-luciferase reporter; [4]): 6.34
Structure (SMILES): CC(C(=O)O)c1ccc(N2Cc3ccccc3C2=O)cc1 (stereo not shown) [Indoprofen, indoprofen, reference compound]
- Max. fold increase (SMN2-luciferase reporter): 3 fold
- exon 7 included full-length SMN-luciferase transcripts [1]: No consistent change
- total SMN-luciferase transcripts [1]: No consistent change

Structure (SMILES): O=C(Nc1ncc(C2(O)CCC2)s1)c1ccc(F)c(Cl)c1 [LDN-212014]
- pEC50 (SMN2-luciferase reporter; [5]): 6.30
- Emax (SMN2-luciferase reporter; [6]): 180%
- Maximum % activation (SMN2-luciferase reporter; Table 7): 156.6 ± 30.7%
- pEC50 (SMN2-luciferase reporter; Table 7, read-out: EC50): 6.52
- Active (SMN2-luciferase reporter; Table 6): Yes
- Maximal solubility in PBS ([2]; PBS): >2 mM
- lifespan (SMA mice; [7]): extension of lifespan
- weight of the treated animals (SMA mice; [8]): increased
- Time to right (SMA mice; PND 6): Fail (Fail = >30 sec)
- Time to right (SMA mice; PND 6, listed as 212014): dead
- Time to right (SMA mice; PND 7): Fail (Fail = >30 sec)
- Time to right (SMA mice; PND 7, listed as 212014): dead
- Time to right (SMA mice; PND 8): Fail (Fail = >30 sec)
- Time to right (SMA mice; PND 8, listed as 212014): dead
- Time to right (SMA mice; PND 9): Fail (Fail = >30 sec) (2×) and dead and 26 seconds
- Time to right (SMA mice; PND 10): Fail (Fail = >30 sec)
- Time to right (SMA mice; PND 10, listed as 212014): dead
- Time to right (SMA mice; PND 11): 5 seconds and dead and Fail (Fail = >30 sec) (2×)
- Time to right (SMA mice; PND 12): 16 s
- Time to right (SMA mice; PND 12, listed as 212014): dead
- Time to right (SMA mice; PND 13): Fail (Fail = >30 sec)
- Time to right (SMA mice; PND 13, listed as 212014): dead
- Time to right (SMA mice; PND 14): 5 s
- Time to right (SMA mice; PND 14, listed as 212014): dead
- Time to right (SMA mice; PND 15): 14 s
- Time to right (SMA mice; PND 15, listed as 212014): dead
- Time to right (SMA mice; PND 16): Fail (Fail = >30 sec)
- Time to right (SMA mice; PND 16, listed as 212014): dead
- Time to right (SMA mice; PND 17): Fail (Fail = >30 sec)
- Time to right (SMA mice; PND 17, listed as 212014): dead
- Time to right (SMA mice; PND 18): dead
- Time to right (SMA mice; PND 19): dead
- Time to right (SMA mice; PND 20): dead
- lifespan (SMA mice; SMA model mice, 20 mg/kg once daily IP in 100% DMSO, vs DMSO vehicle, p<0.0001): significantly increased lifespan
- T1/2 in liver microsomes ([3]; Table 7): 39 min
- Stabilityin liver microsomes [3]: 39 min
- Stability [3]: 39 min
- half-life ([3]; mouse, liver microsomes, t1/2 in mouse liver microsomes, mouse liver microsomes): 39 min

Structure (SMILES): CC(C)c1cc(C(=O)Nc2nc3ccccc3[nH]2)no1 [LDN-212016]
- pEC50 (SMN2-luciferase reporter; Homo sapiens, HEK293, Table 7, read-out: EC50): 6.52
- pEC50 (SMN2-luciferase reporter; [5]): 6.52
- Emax (SMN2-luciferase reporter; [6]): 250%
- Maximum % activation (SMN2-luciferase reporter; Table 7): 162.4 ± 62.4%
- Active (SMN2-luciferase reporter; Table 6): Yes
- solubility ([2]; PBS, aqueous buffer, read-out: Maximal solubility in PBS): 500 µM (≈ 135 µg/mL)
- solubility [2, 9]: < 500 µM
- lifespan (SMA mice; [7]): extension of lifespan
- weight of the treated animals (SMA mice; [8]): increased
- Time to right (SMA mice; PND 6): Fail (Fail = >30 sec)
- Time to right (SMA mice; PND 7): Fail (Fail = >30 sec) (3×) and 25 seconds
- Time to right (SMA mice; PND 8): Fail (Fail = >30 sec)
- Time to right (SMA mice; PND 9): Fail (Fail = >30 sec)
- Time to right (SMA mice; PND 10): Fail (Fail = >30 sec) (3×) and 12 seconds
- Time to right (SMA mice; PND 11): Fail (Fail = >30 sec) (3×) and 9 seconds
- Time to right (SMA mice; PND 12): Fail (Fail = >30 sec)
- Time to right (SMA mice; PND 13): dead and Fail (Fail = >30 sec) (2×) and 11 seconds
- Time to right (SMA mice; PND 14): dead (2×) and Fail (Fail = >30 sec) (2×)
- Time to right (SMA mice; PND 15): dead (3×) and Fail (Fail = >30 sec)
- Time to right (SMA mice; PND 16): dead (3×) and Fail (Fail = >30 sec)
- Time to right (SMA mice; PND 17): dead (3×) and Fail (Fail = >30 sec)
- Time to right (SMA mice; PND 18): dead
- Time to right (SMA mice; PND 19): dead
- Time to right (SMA mice; PND 20): dead
- Stabilityin liver microsomes [3]: 3 min
- Stability [3]: 3 min

- pEC50 (SMN2-luciferase reporter; [5]): 6.82
- solubility [2, 9]: > 2000 µM
- Stabilityin liver microsomes [3]: 59 min
Structure (SMILES): O=C(Nc1ncc(C2(O)CCC2)s1)c1nc2ccccc2[nH]1 [LDN-214098]
- Emax (SMN2-luciferase reporter; [6]): 200%
- Active (SMN2-luciferase reporter; Table 6): Yes

Structure (SMILES): CC(/C=C/C(=O)NO)=C\[C@@H](C)C(=O)c1ccc(N(C)C)cc1 [TSA]
- exon 7 included full-length SMN-luciferase transcripts [1]: increased
- total SMN-luciferase transcripts [1]: increased

- pEC50 (SMN2-luciferase reporter; [4]): 2.00
Structure (SMILES): CCCC(CCC)C(=O)O [Valproic Acid, valproic acid]
- Max. fold increase (SMN2-luciferase reporter): 2.5 fold
- exon 7 included full-length SMN-luciferase transcripts [1]: increases
- total SMN-luciferase transcripts [1]: increases
- exon 7 included full-length SMN-luciferase transcripts ([1]; listed as VPA): increased
- total SMN-luciferase transcripts ([1]; listed as VPA): increased
